What all share (assay): NCI tumour cell line growth inhibition, 48 h
Assay [1] relates to ACHN renal.
Assay [2] concerns HCC-2998 colon.
Assay [3] concerns HCT-15 colon.
Assay [4] concerns OVCAR-8 ovarian.
The subject of assay [5] is MDA-MB-435.
The test system of assay [6] is HL-60(TB) leukemia.
Assay [7] has as its system 786-0 renal.
Assay [8] deals with SF-268 CNS.
The subject of assay [9] is MALME-3M melanoma.
In assay [10] the test system is MDA-N.
Assay [11] relates to SK-OV-3 ovarian.

Several values for one entry are separate records, joined by “and”; a condition that tells them apart may be missing. Equal values may be shown once.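 Where inhibition never reached the appropriate level, the endpoint shown equals the highest concentration tested. Otherwise, values were interpolated linearly from a five-concentration, 48-hour dose response in 96-well plates. Abbreviation: GI50, concentration required for 50% inhibition of growth. TGI is the concentration that stops growth completely.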 Where a SMILES comes first, the peptide text is derived from it. The star is where a group is joined. Boc = CC(C)(C)OC(=O)*

`CN(C)Cc1cc(N=Nc2ccc(Cl)c(Cl)c2)ccc1O`: the TGI in assay [1] came out at 16.2 µM; in [2] it was 24.4 µM; in [3], 19.1 µM; in [4], 25.5 µM; in assay [5], 23.9 µM; in assay [6], 9.44 µM. For the same molecule, the TGI in [7] stood at 24.2 µM; in assay [8], 18.7 µM; in [9], 29.6 µM; in [10], 23.5 µM.
`Cc1nc2c(Br)cc(Br)cc2c(=O)n1-c1ccccc1N`: the TGI in [1] is > 100 µM; in assay [2], > 100 µM; in [3], > 100 µM; in [4], > 100 µM; in [5] it was > 100 µM; in [6] it was 66.5 µM. In addition, the TGI in [11], in assay [7], in [8], in assay [9] and in assay [10] was > 100 µM in each case.
Consider `C=C(Br)CN(C#N)CC(=C)Br`, for which the TGI in assay [1], in [2], in assay [3], in assay [4], in assay [5] and in [6] was > 100 µM each time. Moreover, the TGI in assay [11], in assay [7], in assay [8], in [9] and in [10] was > 100 µM each time.
As for `CN(C)c1ccc(/C=C2\N=C(c3ccccc3)N(c3nc4c(Cl)cc(Cl)cc4s3)C2=O)cc1`, the TGI was > 100 µM in assay [1]; > 100 µM in assay [2]; > 100 µM in assay [3]; > 100 µM in [4]; 67.6 µM in assay [5]; > 100 µM in assay [6]. For the same molecule, the TGI in assay [11] is > 100 µM; in assay [7], > 100 µM; in [8] it was > 100 µM; in assay [10], 56.8 µM.
Regarding `COc1ccc2c(c1)CC[C@@H]1[C@@H]2CC[C@]2(C)/C(=N/OCCN3CCCCC3)CC[C@@H]12`, the TGI in assay [1] came out at 21.3 µM; in assay [2], 8.26 µM; in assay [3], 6.23 µM; in assay [4], 23.1 µM; in assay [5], 16.9 µM; in [6], 6.35 µM. For the same molecule, the TGI worked out at 23.7 µM in assay [11]; 3.41 µM in assay [7]; 24.7 µM in assay [8]; 4.89 µM in [9]; 5.9 µM in assay [10].
For the molecule `CC(=O)Oc1ccc2c(c1)CC[C@@H]1C2[C@@H](O[N+](=O)[O-])C[C@@]2(C)C1CC[C@@H]2O` (stereo partly drawn), the TGI in assay [1] was > 100 µM; in [2] it was 46.2 µM; in [3], > 100 µM; in assay [4] it was > 86.7 µM; in assay [5], 56.2 µM; in assay [6], 34.4 µM. The TGI is > 100 µM in [11]; > 100 µM in assay [7]; > 83 µM in assay [8]; > 100 µM in [9]; 27.9 µM in assay [10].
In the case of `Cn1c2ccccc2n2c3nc4ccccc4nc3c(C#N)c12`, the TGI was > 100 µM in assay [1]; > 79.1 µM in assay [2]; > 100 µM in assay [3]; > 100 µM in [4]; > 100 µM in assay [5]; > 100 µM in assay [6]. The TGI in [11], in assay [7], in assay [8], in assay [9] and in assay [10] was > 100 µM throughout.
For `C=C1CCCCCCCCCCC1S(=O)c1ccccc1` (stereo not drawn), the TGI in assay [1] was > 100 µM; in assay [2] it was > 100 µM; in assay [3], > 100 µM; in assay [5], 59.3 µM; in assay [6], 39.2 µM; in assay [11], 96.4 µM. The TGI in assay [7] is 38.2 µM; in assay [8], 95.8 µM; in assay [9], > 100 µM; in [10], > 100 µM.
For `COc1cccc(-c2cc(=O)c3cc(C)cnc3[nH]2)c1`, the TGI was > 100 µM in assay [1]; 2.67 µM in assay [2]; 0.0686 µM in [5]; 0.617 µM in assay [6]; > 100 µM in assay [11]; > 25.3 µM in [7]. Moreover, the TGI in assay [8] was > 100 µM; in assay [9] it was > 100 µM; in [10], 0.0213 µM.
With `O=[N+]([O-])C(=C(NCc1ccccc1)NCc1ccccc1)C(Cl)=C(Cl)Cl`, the TGI in assay [1] was 55.9 µM; in assay [2], > 100 µM; in assay [3] it was 62.8 µM; in [4] it was > 100 µM; in assay [5] it was 46.7 µM; in assay [6], 45.9 µM. The TGI was > 100 µM in [11]; > 100 µM in assay [7]; 69.4 µM in assay [8]; 55.7 µM in assay [9]; 74.7 µM in assay [10].
Regarding `Brc1ccc2c(c1)C1=C(CO2)Cc2ccccc2O1`, the TGI was 33.3 µM in assay [1]; 32.3 µM in assay [2]; 38.4 µM in [3]; 47.6 µM in assay [4]; 45.1 µM in assay [5]; 46.7 µM in assay [11]. The TGI was determined as 43.7 µM in assay [7], 41 µM in assay [8], 38.2 µM in [9] and 27 µM in [10].
`Cc1nn(-c2ccccc2)c(C)c1/C=N/NC(=O)c1sc(=S)n(-c2ccccc2)c1N`: the TGI in assay [1] was 4.32 µM; in assay [2], 13.5 µM; in assay [3], > 100 µM; in assay [4] it was > 100 µM; in assay [5], > 100 µM; in assay [6], > 100 µM. Also, the TGI in [11], in assay [7], in [8], in assay [9] and in assay [10] was > 100 µM in each case.
For `CC[C@H]1C=CCC[C@@]2(C[C@@H]3CC[C@@H]4[C@H](C(=O)OCCCCCCCCCCCCCCCC(=O)N(CCCN)C[C@@H](O)CCN)[C@]5(CCC[C@@H](C)O5)NC(=[N+]34)N2)O1`, the TGI was > 4.73 µM in assay [1]; 0.793 µM in [2]; > 10 µM in assay [3]; 7.13 µM in [4]; 0.469 µM in assay [5]; 1.36 µM in assay [6]. The TGI in assay [11] is 4.77 µM; in assay [7], 1.04 µM; in assay [8], 2.41 µM; in assay [9], 1.26 µM; in assay [10], 1.14 µM.
With `CC(NC(=O)C(NC(=O)OC(C)(C)C)C(C)C)C(=O)NCC(=O)O` (stereo not drawn) (Boc-Val-Ala-Gly-OH; configuration not given here), the TGI in [1], in assay [2], in [3], in assay [4], in assay [5] and in assay [11] was > 100 µM in each case. Also, the TGI in assay [7], in [8], in assay [9] and in [10] was > 100 µM each time.
Take `O=C(CCCC(=O)N1CC(CCl)c2ccc([N+](=O)[O-])cc21)N1CC(CCl)c2ccc([N+](=O)[O-])cc21` (stereo not drawn): the TGI in assay [1], in assay [2], in assay [3], in assay [5], in assay [6] and in assay [11] was > 100 µM throughout. For the same molecule, the TGI in [7], in [8] and in assay [10] was > 100 µM in each case.
On to `CSc1n[n+](C)cc(N)c1N`, for which the TGI in [1], in [2], in assay [3], in assay [4], in assay [5] and in [6] was > 100 µM throughout. Moreover, the TGI in [11], in assay [7], in [9] and in assay [10] was > 100 µM each time.
Regarding `CC1(C)CCOC(=O)C(Cl)CC1Cl` (stereo not drawn), the TGI in assay [1], in assay [2], in assay [3], in assay [4], in assay [5] and in assay [11] was > 100 µM each time. Besides, the TGI in assay [7], in assay [8], in [9] and in assay [10] was > 100 µM throughout.
Take `O=C1/C(=C/c2cccs2)N=C(c2ccccc2)N1C1Nc2cc3c(cc2S1)NC(N1C(=O)/C(=C/c2cccs2)N=C1c1ccccc1)S3` (stereo not drawn): the TGI was > 100 µM in assay [1]; 43.3 µM in assay [2]; 34.7 µM in [3]; 47.2 µM in assay [4]; 42.6 µM in assay [5]; 39.6 µM in assay [6]. In addition, the TGI in [7] was 43.1 µM; in assay [8], 47.5 µM; in [10], 41 µM.
Regarding `Cc1c2cc[n+](C)cc2c(C)c2c1[nH]c1ccccc12`, the TGI in [1] is > 100 µM; in [2], 12.6 µM and 12.9 µM; in [3] it was > 100 µM and 99 µM; in [4], 27.4 µM and 18.1 µM; in [5] it was > 100 µM; in [6], 66.9 µM and 63.5 µM. The TGI in [11] was 64.7 µM and 64.2 µM; in assay [8], 1.87 µM and 1.88 µM; in [9], 3.24 µM and 4.03 µM; in assay [10] it was 19.6 µM. Moreover, the GI50 in [3] is 88 µM and 19.4 µM.
Turning to `CCOC(=O)/C(=C\c1ccc(CO)o1)P(=O)(OCC)OCC`, the TGI is > 100 µM in [1]; > 100 µM in assay [2]; 33.2 µM in [3]; 86.9 µM in [5]; > 100 µM in assay [11]; 45.3 µM in assay [7]. Also, the TGI in [8] came out at 75.8 µM; in [9], 50 µM; in assay [10] it was 47.8 µM.
`O=C1CSC2(CCN(CCCN3c4ccccc4Sc4ccc(Cl)cc43)CC2)N1`: the TGI came to 23.7 µM in [1]; 14.4 µM in assay [2]; 20.8 µM in assay [3]; 23.8 µM in [4]; 23.5 µM in assay [5]; 21.5 µM in assay [11]. Also, the TGI worked out at 23.2 µM in [7], 26.6 µM in assay [8], 24.4 µM in [9] and 23.6 µM in assay [10].
Consider `OC1CN=C2c3ccccc3C(O)(c3ccc(Cl)cc3)N2C1` (stereo not drawn), for which the TGI in assay [1] is > 100 µM; in [2], 35.5 µM; in assay [4] it was > 100 µM; in [5], > 100 µM; in assay [6] it was > 100 µM; in assay [11] it was > 100 µM. The TGI in assay [7], in assay [8], in assay [9] and in assay [10] was > 100 µM in each case.
As to `Clc1ccc(OCc2nnc(CCCCCCCCc3nnc(COc4ccc(Cl)cc4Cl)o3)o2)c(Cl)c1`, the TGI in [1], in assay [2], in assay [3], in assay [5], in [11] and in [7] was > 100 µM each time. The TGI in [8], in assay [9] and in [10] was > 100 µM each time.
With `COc1ccc(-c2cc(-c3ccc(Nc4ccnc5cc(Cl)ccc45)cc3)nc(N)c2C#N)c2ccccc12`, the TGI in [1], in assay [2], in assay [3], in assay [4], in assay [5] and in assay [7] was > 100 µM throughout. For the same molecule, the TGI in assay [8], in assay [9] and in assay [10] was > 100 µM throughout.
For the molecule `COc1cccc(/C=C/C2=NN(c3cccc(S(=O)(=O)O)c3)C3(C2)SCC(=O)N3c2nc3ccccc3s2)c1` (stereo not drawn), the TGI was > 100 µM in [1]; > 100 µM in [2]; > 100 µM in assay [3]; > 100 µM in [4]; 66.6 µM in assay [5]; > 100 µM in assay [6]. Moreover, the TGI in assay [7] was 43.1 µM; in assay [8] it was > 100 µM; in assay [9], > 100 µM; in [10] it was > 100 µM.

For the origin of these results see PubChem BioAssay (NCI).
